PubChem BioAssay (NCI)
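48-hour exposure; five concentrations; linearly interpolated endpoints. Here, GI50 denotes the concentration required for 50% inhibition of growth. TGI marks complete inhibition of growth.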

What was measured:
Assay in all cases: inhibition of tumour cell growth, NCI panel, 48 h
[1] = tested on: UACC-257 melanoma
[2] = tested on: MOLT-4 leukemia
[3] = tested on: HT29 colon
[4] = tested on: HCT-116 colon
[5] = tested on: SN12C renal
[6] = tested on: A498 renal
[7] = tested on: SK-MEL-2 melanoma
[8] = tested on: RXF 393 renal
[9] = tested on: OVCAR-8 ovarian
[10] = tested on: DU-145 prostate

| SMILES | TGI [1] [µM] | TGI [2] [µM] | TGI [3] [µM] | TGI [4] [µM] | TGI [5] [µM] | TGI [6] [µM] | TGI [7] [µM] | TGI [8] [µM] | TGI [9] [µM] | TGI [10] [µM] | GI50 [1] [µM] | GI50 [2] [µM] | GI50 [9] [µM] | GI50 [10] [µM] | GI50 [3] [µM] | GI50 [4] [µM] | GI50 [5] [µM] | GI50 [6] [µM] | GI50 [7] [µM] |
| --- | --- | --- | --- | --- | --- | --- | --- | --- | --- | --- | --- | --- | --- | --- | --- | --- | --- | --- | --- |
| COC(=O)C(=O)Cc1nc2ccccc2o1 | > 100 | > 100 | > 100 | > 100 | > 100 | > 100 | > 100 | > 100 |  |  |  |  |  |  |  |  |  |  |  |
| COc1ccc(CNc2cc(=O)n(C)c(=O)[nH]2)cc1 | > 100 | > 100 | > 100 | > 100 | > 100 | > 100 | > 100 | > 100 | > 100 |  |  |  |  |  |  |  |  |  |  |
| c1ccc(CC2COC(c3cccs3)=N2)cc1 (stereo not drawn) | > 100 | > 100 | > 100 | > 100 | > 100 |  | > 100 | > 100 | > 100 | > 100 |  |  |  |  |  |  |  |  |  |
| CN1CCN(P2(=S)Oc3ccc4ccccc4c3-c3c(ccc4ccccc34)O2)CC1 | > 91.4 | 46.2 | 49.8 | > 100 | > 100 | > 100 | 42.4 | > 94.7 | > 100 |  |  |  |  |  |  |  |  |  |  |
| COc1ccc(Nc2ccc([N+](=O)[O-])cc2[N+](=O)[O-])cc1CN(CCCl)CCCl | 34.2 | 9.94 | 9.59 | 3.75 | > 100 | 4.94 | 5.66 |  | > 100 | 10.5 | 5.31 | 0.39 | 3.02 | 3.1 | 2.44 | 1.16 | 2.6 | 1.88 | 2.28 |
| CCCn1c(=O)c(N2CCN(c3ccccc3)CC2)nc2sc3ccccc3c21 | > 100 | > 100 | > 100 | > 100 | > 100 | > 100 | > 100 |  | > 100 | > 100 |  |  |  |  |  |  |  |  |  |
| CN(C)CCNC(=O)c1cccc2c(NC(CCC(N)=O)C(=O)O)c3ccccc3nc12 (stereo not drawn) | > 100 | 71.3 | 41.7 | > 100 | 81 | 37.2 | 25.4 |  | > 100 | > 100 |  |  |  |  |  |  |  |  |  |
| CCOC(=O)c1c[nH]c2ccc3c(c2c1=O)S(=O)(=O)CC3 (tested in a mixture with another compound) | > 100 | > 100 | > 100 | > 100 | > 100 | > 100 | > 100 | > 100 | > 100 |  |  |  |  |  |  |  |  |  |  |
| Cc1cc(NS(=O)(=O)c2ccc(NC(=O)c3cccc4c(Nc5ccc(S(N)(=O)=O)cc5)c5ccccc5nc34)cc2)no1 | > 100 | > 100 | > 100 | > 100 | > 100 | > 100 | > 100 | > 100 |  |  |  |  |  |  |  |  |  |  |  |
| CC(C)(CCC(C)(C)N1OC1c1ccccc1)N1OC1c1ccccc1 (stereo not drawn) | > 100 |  | > 100 | > 100 | > 100 | > 100 | > 100 |  | > 100 | > 100 |  |  |  |  |  |  |  |  |  |
| NNc1nnc(-c2nnc(NN)o2)o1 | > 10 | > 10 | > 10 | > 10 | > 10 | > 10 |  | > 10 | > 10 | > 10 |  |  |  |  |  |  |  |  |  |
| N#CCCC1(CCC#N)CCCCCCCCC(CCC#N)(CCC#N)C(O)C1O (stereo not drawn) | > 100 |  | > 100 | > 100 | > 100 | > 100 | > 100 | 86.9 | > 100 | > 100 |  |  |  |  |  |  |  |  |  |
| COc1cc(CNc2nc3ccccc3nc2C(=O)O)cc(OC)c1OC | > 100 | > 100 | > 100 | > 100 | > 100 | > 100 |  | > 100 | > 100 | > 100 |  |  |  |  |  |  |  |  |  |
| COc1cccc(/N=N/C(=NNC(=O)c2ccc(C)cc2)c2ccc(N(C)C)cc2)c1 | > 100 | > 100 | > 100 | > 100 | > 100 |  | > 100 |  | > 100 | > 100 |  |  |  |  |  |  |  |  |  |
| O=C1NC2CCCCCC2C12CCCCC2 (stereo not drawn) | > 100 | > 100 | > 100 | > 100 | > 100 | > 100 |  | > 100 |  |  |  |  |  |  |  |  |  |  |  |
| COc1ccc(C(=O)/C=C/c2ccc(OCC#N)cc2)cc1 | > 100 | 77.1 | > 100 | 24.6 | 39.2 | 96.3 |  | 30.7 | > 100 | 81.7 |  |  |  |  |  |  |  |  |  |
| O=C1CCCC/C1=C\c1ccc(Cl)c(Cl)c1 |  | 43.8 | 55.1 | 31.9 | 31 | > 100 |  |  | 78 |  |  |  |  |  |  |  |  |  |  |
